Where two headings read alike, the source gives them in different places. Marks after values point to notes of the source that are not given here.
Assays:
[1] = test system: DSS induced rat IBD chronic model; experiment: DSS induced rat IBD chronic model (therapeutic effect); type: in vivo, Wistar rats; conditions: for Side effects such as inhibition of weight gain: rat, in vivo
Description: Colitis was induced by freely allowing male 7 week-old Wistar rats (purchased from Japan SLC, Inc.) to ingest 3% DSS solution for 3 days, and subsequently chronic IBD was induced by freely allowing to ingest 1% DSS solution starting from the 4th day of the test.
Compound A (2, 20 mg/kg/day), 5-aminosalicylic acid as a control (5-ASA: 200 mg/kg/day) and cyclosporine A (Cy A: 25 mg/kg/day) were administered to the animals starting from the 4th day of the test until the day of dissection (n=8 to 20).
The property of feces in individual animal was observed until the day before dissection, and the soft feces score and the blood feces score were determined according to the same basis as shown in Test Example 3 to obtain the sum of the soft feces score and blood feces score as the feces score.
Also, 1% Evans blue physiological saline was intravenously injected in an amount of 1 ml per rat on the day of dissection, and the animal was euthanized 30 minutes after that for excising the large intestine. After immobilizing the large intestine in the length of 7 to 8 cm from anus with 4% formalin buffer for 20 minutes, the intestine was longitudinally opened from the mesenterium side for photographing the rectal portion and measuring the rectum weight. The state and extent of eroded rectal portion were scored according to the following basis for making a macro observation score.
Macro observation score (0-5)
[0: normal, • 1: erosion formation in narrow ranges, • 2: weak erosion formation, without bleeding, • 3: moderate erosion formation and weak bleeding in narrow ranges, • 4: strong erosion formation and bleeding in narrow ranges, • 5: strong erosion formation and bleeding in wide ranges]
A therapeutic effect of Compound B orally administered was examined in the same manner as in Test Example 4 except that Compound B (20 mg/kg/day) was used in place of Compound A (n=12).

[2] = test system: TNBS induced IBD model; experiment: Trinitrobenzene sulfonic acid (TNBS) induced rat IBD model (therapeutic effect); type: in vivo, SD rats
Description: 8 week-old male SD rats (purchased from Charles River
Laboratories Japan, Inc.) were intrarectally treated with TNBS to induce enteritis, and divided into groups 2 days after the treatment with TNBS to initiate the administration of the drugs. A solvent, Compound A (2, 20, 50 mg/kg/day), or prednisolone (6 mg/kg/day) was orally administered twice a day, and the rats were subjected to autopsy 8 days after administration for determining the macro observation score. The evaluation of the score was conducted by the method described in Table 4 according to the judgment method by JOHN L. WALLACE et al. (Gastroenterology 1989; 96: 29-36).
Furthermore, the large intestine was cut to a length of 10 cm for measuring the wet weight of intestine.

[3] = test system: DSS induced IBD model; experiment: 3% dextran sulfate sodium (DSS) induced acute rat IBD model (prophylactic effect); type: in vivo, Wistar rats; conditions: for inhibition at 10 mg/kg/day / inhibition at 1 mg/kg/day / inhibition at 100 mg/kg/day: Rattus norvegicus, po, read-out: Inhibition rate (%); for ulcer area: Table 2 (title: ulcer area reduction effect), twice a day; for ulcer area / Feces score: mean ± SE; for Feces score: Table 3 (effectiveness on feces score)
From the text: IBD was induced by freely allowing male 7 week-old Wistar rats (purchased from Japan SLC, Inc.) to ingest 3% DSS solution (n=8). In the period of 7 days after initiating DSS administration, soft feces and blood feces scores were observed according to the following basis, and the sum of the soft feces score and blood feces score was obtained as the feces score of the individual animal.
• Soft feces score (0 to 3) • [0: nothing abnormal detected (NAD), • 1: slightly soft, • 2: soft, • 3: diarrhea] • Blood feces score (0 to 3) • [0: nothing abnormal detected (NAD), • 1: blood in feces, • 2: bright-red blood adhered on feces, • 3: melena]
1% Evans blue physiological saline was intravenously injected in an amount of 1 ml per rat 8 days after DSS exposure, and the animal was euthanized 30 minutes after that for excising the large intestine. After immobilizing the large intestine in the length of 7 to 8 cm from anus with 4% formalin buffer for 20 minutes, the intestine was longitudinally opened from the mesenterium side for photographing the rectal portion. Ulcer area was calculated by image analysis.
Compound A (10 mg/kg/day), or. sulfasalazine (100 mg/kg/day) or prednisolone (1 mg/kg/day) as a control compound was made into suspension in an agate mortar, which was orally administered twice a day at a dose of 5 ml/kg to each rat starting from a day before administration of DSS to a day before dissection. In this connection, 1% hydroxypropylmethyl cellulose solution (HPMC) was used as a solvent, which was administered at a dose of 5 ml/kg to the solvent treated group.

[4] = test system: TNBS induced IBD model; experiment: Trinitrobenzene sulfonic acid (TNBS) induced rat IBD model (therapeutic effect); type: in vivo, SD rats; conditions: 5 mg/kg × 2 oral, from 2 days after TNBS
[5] = Test for converting Compound A into Compound B (oral 14C Compound A, Radio-HPLC); type: in vivo, Wistar rats; conditions: for Detection in plasma: 15 minutes after oral 14C labeled Compound A 1 mg/kg, fasting rats; for Detection in bile: bile collected for 8 hours after oral 14C labeled Compound A 1 mg/kg; for Detection in urine: urine collected for 24 hours after oral 14C labeled Compound A 1 mg/kg
Description: Male 8 week-old Wistar rats (purchased from Japan SLC, Inc.) under fasting conditions were orally administered with ^14C labeled Compound A at a dose of 1 mg/kg, and the amounts of Compound B in plasma, urine and bile were determined by Radio-HPLC.

[6] = cited from earlier work
[7] = test system: carrageenin induced paw edema in rats; experiment: Carrageenin induced paw edema in rats; type: in vivo, Wistar rats; conditions: for Volume of edema: 3 h after carrageenin, mean ± SE
Description: To right hind paws of male 7 week-old Wistar rats (purchased from Japan SLC, Inc.) 0.1 ml of 1% λ-carrageenin was subcutaneously injected to cause paw edema reaction (n=5). Compound A at doses of 1 to 25 mg/kg and indomethacin at a dose of 5 mg/kg were orally administered 15 and 60 minutes before administration of carrageenin, respectively.
Three hours after administration of carrageenin, when the paw edema reaction reached maximum, the effectiveness was evaluated from the volumes of the right hind paw edema.

[8] = in vivo; design: species or system SD rats; conditions: both sexes, SD, rat, po
Description: To 6 week-old male and female SD rats (purchased from
Charles River Laboratories Japan, Inc.) a solvent (hydroxymethyl cellulose) or Compound A (100, 300, 1000 mg/kg/day) was administered orally and repeatedly for 26 consecutive weeks (n=15).

[9] = test system: splenocytes; experiment: Direct effect on the activation of T cells: cytokine production by ovalbumin-stimulated splenocytes (ELISA); type: cell-based, Balb/c mice; conditions: for Production of IFNγ / Production of IL-2 / Production of IL-5: culture for 24 hours
Description: 7 week-old male Balb/c mice (purchased from Japan SLC, Inc.) were sensitized with an aluminum hydroxide gel-ovalbumin suspension administered intraperitoneally or subcutaneously in both inguinal regions on the first and 14th days, and the spleen was excised on the 21st day for preparing a splenocyte suspension. After removal of erythrocytes, Compound B (10 μM) and ovalbumin were added to splenocytes suspended in a culture medium, and the mixture was cultured at 37° C. under a condition of 5% CO2.
IL-4 in the supernatant after culture for 6 hours, and IL-2, IL-5 and IFNγ in the supernatant after culture for 24 hours were quantitatively determined by ELISA (ELISA kit manufactured by ENDOGEN).

[10] = test system: IBD; conditions: ulcerative colitis and Crohn's disease, literature; cited from earlier work
[11] = 20 mg/kg/day from 4th day, vs solvent treated group

Nc1ccc(O)c(C(=O)O)c1 [Compound 5-ASA, 5-aminosalicylic acid, reference compound]
Inhibitory effects in any evaluation items ([1]; 200 mg/kg/day from 4th day): significant inhibitory effects were not recognized

COc1cc2[nH]c(=O)c3nn(C(OC(=O)OC(C)C)C(C)C)nc3c(=O)c2cc1OC (centres unmarked) [Compound A, 2-(1-Isopropoxycarbonyloxy-2-methylpropyl)-7,8-dimethoxy-4(5H),10-dioxo-2H-1,2,3-triazolo[4,5-c][1]benzoazepine]
Colonic ulceration score ([2]; 1 mg/kg × 2 oral, from 2 days after TNBS): 3.5 ± 0.4
Colonic ulceration score ([2]; 25 mg/kg × 2 oral, from 2 days after TNBS): 3.3 ± 0.3
Weight gain ([2]; Compound A treated group (2 to 50 mg/kg/day oral)): significant inhibition of weight gain was not observed
Colonic ulceration score ([2]; Table 6 (title: colonic wet weight of large intestine, 10 cm), 25 mg/kg × 2 oral): 1.20 ± 0.04
Side effects ([3]; 10 mg/kg/day oral): without any side effects
inhibition at 10 mg/kg/day ([3]; Table 2 (ulcer area reduction effect), 10 mg/kg/day oral): 36.4%
inhibition at 10 mg/kg/day ([3]; Table 3 (feces score), 10 mg/kg/day oral): 40.7%
ulcer area ([3]; 10 mg/kg/day oral): 291.3 ± 37.0
Feces score ([3]; 10 mg/kg/day oral): 2.00 ± 0.53
Colonic ulceration score [4]: 3.5 ± 0.5
Detection in plasma [5]: not detected
Detection in bile [5]: not detected
Metabolism of Compound A into Compound B on absorption ([5]; oral 1 mg/kg, rats): nearly all of Compound A was metabolized into Compound B
Detection in urine [5]: not detected
Effect on the feces score on the day before dissection (FIG. 3) ([1]; 2 mg/kg/day from 4th day): significant (P<0.005) ameliorating effect
Effect on the increase of rectum weight (FIG. 2) ([1]; 2 mg/kg/day from 4th day, vs solvent treated group): significant (P<0.005, P<0.05) ameliorating effect
Effect on macro observation score (FIG. 4) ([1]; 2 mg/kg, P=0.0509 category test, P=0.1161 segmentation test): inhibitory tendency
Effect on the feces score on the day before dissection (FIG. 3) ([1]; 20 mg/kg/day from 4th day): significant (P<0.005) ameliorating effect
Effect on the increase of rectum weight (FIG. 2) [1, 11]: significant (P<0.005, P<0.05) ameliorating effect
Effect on the shortening of large intestine (FIG. 1) [1, 11]: significant (P<0.01) ameliorating effect
Effect on macro observation score (FIG. 4) ([1]; 20 mg/kg/day, P=0.0006 category test, P=0.0003 segmentation test): significant ameliorating effect
Side effects such as inhibition of weight gain [1]: not observed
Absorbability upon oral administration relative to Compound B [6]: seven times as large as that of Compound B
Volume of edema ([7]; 1 mg/kg oral 15 min before carrageenin): 0.87 ± 0.04 mL
Volume of edema ([7]; 5 mg/kg oral 15 min before carrageenin): 0.89 ± 0.04 mL
Volume of edema ([7]; 25 mg/kg oral 15 min before carrageenin): 0.67 ± 0.05 mL
Inhibitory effect on paw edema ([7]; any doses (1 to 25 mg/kg oral)): no inhibitory effect
NOAEL at 26 weeks [8]: ≥ 1000 mg/kg/day

COc1cc2[nH]c(=O)c3nn[nH]c3c(=O)c2cc1OC [Compound B, 7,8-dimethoxy-4(5H),10-dioxo-1H-1,2,3-triazolo[4,5-c][1]benzoazepine]
Production of IL-4 ([9]; 10 μM, culture for 6 hours): did not inhibit
Production of IFNγ ([9]; 10 μM): did not inhibit
Production of IL-2 ([9]; 10 μM): did not inhibit
Production of IL-5 ([9]; 10 μM): did not inhibit
Detection in plasma [5]: detected as the main metabolite
Detection in bile [5]: detected as the main metabolite
Detection in urine [5]: detected as the main metabolite
Effect on macro observation score ([1]; 20 mg/kg/day oral): an inhibitory effect was recognized
Feces score on the day before dissection ([1]; 20 mg/kg/day oral, n=12, solvent treated group 1.9±0.25, P<0.05): 0.9±0.24
Side effects such as inhibition of weight gain [1]: not observed

COc1ccc2c(c1)c(CC(=O)O)c(C)n2C(=O)c1ccc(Cl)cc1 [Indomethacin, indomethacin, reference compound]
Inhibitory effect on paw edema ([7]; 5 mg/kg oral): significant (p<0.01) inhibitory effect
Volume of edema ([7]; 5 mg/kg oral 60 min before carrageenin): 0.48 ± 0.04 mL

C[C@]12C=CC(=O)C=C1CC[C@@H]1[C@@H]2[C@@H](O)C[C@@]2(C)[C@H]1CC[C@]2(O)C(=O)CO [Prednisolone, prednisolone, reference compound]
Colonic ulceration score ([2]; 3 mg/kg × 2 oral, from 2 days after TNBS): 3.0 ± 0.5^b
Weight gain ([2]; 6 mg/kg/day oral): remarkable inhibition of (P<0.01) weight gain
Colonic ulceration score ([2]; Table 6 (title: colonic wet weight of large intestine, 10 cm), 3 mg/kg × 2 oral): 1.05 ± 0.09^bb
Weight gain (side effect) ([3]; 1 mg/kg/day oral): significant weight gain inhibitory effect
inhibition at 1 mg/kg/day ([3]; Table 2 (ulcer area reduction effect), 1 mg/kg/day oral): 26.1%
inhibition at 1 mg/kg/day ([3]; Table 3 (feces score), 1 mg/kg/day oral): 40.7%
ulcer area ([3]; 1 mg/kg/day oral): 337.5 ± 34.1
Feces score ([3]; 1 mg/kg/day oral): 2.00 ± 0.42
Production of IFNγ ([9]; concentration not given): almost completely inhibited
Production of IL-2 ([9]; concentration not given): almost completely inhibited
Production of IL-5 ([9]; concentration not given): almost completely inhibited

O=C(O)c1cc(/N=N/c2ccc(S(=O)(=O)Nc3ccccn3)cc2)ccc1O [Sulfasalazine, sulfasalazine]
inhibition at 100 mg/kg/day ([3]; Table 2 (ulcer area reduction effect), 100 mg/kg/day oral): 8.2%
inhibition at 100 mg/kg/day ([3]; Table 3 (feces score), 100 mg/kg/day oral): 22.2%
Feces score ([3]; 100 mg/kg/day oral): 2.63 ± 0.50

O=C([O-])c1cc(=O)c2c(OCC(O)COc3cccc4oc(C(=O)[O-])cc(=O)c34)cccc2o1.[Na+].[Na+] [disodium cromoglycate]
Effectiveness against IBD [10]: ineffective against IBD
